Measurements published in patent publication US11130756B2, “[1,2,4]Triazolo[4,3-A]pyridinyl substituted indole compounds” (BRISTOL-MYERS SQUIBB COMPANY, priority 2017, dated 2021).

Columns and labels:
Format in all cases: cell-based
human TLR9 = target: T1, human TLR9 (Homo sapiens, UniProt Q9NR96); experiment: TLR9 inhibition reporter assay (HEK-Blue, SEAP); conditions: HEK-Blue cells overexpressing human TLR9, ODN2006 5 nM, 22 hour incubation
T1 construct: host or cells: HEK-Blue cells
T1 sequence (Q9NR96 26-1032): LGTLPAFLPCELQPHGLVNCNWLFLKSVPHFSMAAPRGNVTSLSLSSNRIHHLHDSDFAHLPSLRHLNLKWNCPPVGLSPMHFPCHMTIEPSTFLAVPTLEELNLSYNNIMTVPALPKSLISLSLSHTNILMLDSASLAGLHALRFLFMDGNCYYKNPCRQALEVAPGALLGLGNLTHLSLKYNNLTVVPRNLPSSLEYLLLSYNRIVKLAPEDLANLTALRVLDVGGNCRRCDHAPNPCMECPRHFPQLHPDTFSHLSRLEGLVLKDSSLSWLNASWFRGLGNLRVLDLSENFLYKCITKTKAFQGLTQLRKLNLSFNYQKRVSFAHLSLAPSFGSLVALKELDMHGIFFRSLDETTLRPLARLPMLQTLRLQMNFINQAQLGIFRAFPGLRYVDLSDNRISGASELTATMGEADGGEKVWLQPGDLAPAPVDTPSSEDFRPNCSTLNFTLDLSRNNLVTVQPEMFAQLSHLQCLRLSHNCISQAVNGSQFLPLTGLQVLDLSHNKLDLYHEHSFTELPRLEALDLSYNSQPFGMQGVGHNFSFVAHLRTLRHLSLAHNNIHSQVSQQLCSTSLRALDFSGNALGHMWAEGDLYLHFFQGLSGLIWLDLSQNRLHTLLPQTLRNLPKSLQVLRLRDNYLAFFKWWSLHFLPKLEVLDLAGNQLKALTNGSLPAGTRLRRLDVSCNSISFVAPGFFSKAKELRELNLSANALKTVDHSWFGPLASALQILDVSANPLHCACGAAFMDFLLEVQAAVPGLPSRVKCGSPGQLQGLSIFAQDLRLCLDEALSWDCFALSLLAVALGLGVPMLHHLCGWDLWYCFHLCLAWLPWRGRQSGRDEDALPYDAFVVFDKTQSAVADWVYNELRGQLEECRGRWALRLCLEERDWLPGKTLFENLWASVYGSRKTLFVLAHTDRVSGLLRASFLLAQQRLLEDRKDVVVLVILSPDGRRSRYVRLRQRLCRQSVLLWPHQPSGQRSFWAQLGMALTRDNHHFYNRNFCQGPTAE
Outline: (§1)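 Human TLR7/8/9 HEK-Blue reporter lines; dose range 0.05 nM–50 μM; 30 min RT preincubation; stimulus gardiquimod 7.5 μM / R848 15.9 μM / ODN2006 5 nM respectively; 22 h, 37 °C; SEAP detected colorimetrically.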

human TLR7 = target: T2, human TLR7 (Homo sapiens, UniProt Q9NYK1); experiment: TLR7 inhibition reporter assay (HEK-Blue, SEAP); conditions: HEK-Blue cells overexpressing human TLR7, gardiquimod 7.5 μM, 22 hour incubation
T2 construct: host or cells: HEK-Blue cells
T2 sequence (Q9NYK1 27-1049): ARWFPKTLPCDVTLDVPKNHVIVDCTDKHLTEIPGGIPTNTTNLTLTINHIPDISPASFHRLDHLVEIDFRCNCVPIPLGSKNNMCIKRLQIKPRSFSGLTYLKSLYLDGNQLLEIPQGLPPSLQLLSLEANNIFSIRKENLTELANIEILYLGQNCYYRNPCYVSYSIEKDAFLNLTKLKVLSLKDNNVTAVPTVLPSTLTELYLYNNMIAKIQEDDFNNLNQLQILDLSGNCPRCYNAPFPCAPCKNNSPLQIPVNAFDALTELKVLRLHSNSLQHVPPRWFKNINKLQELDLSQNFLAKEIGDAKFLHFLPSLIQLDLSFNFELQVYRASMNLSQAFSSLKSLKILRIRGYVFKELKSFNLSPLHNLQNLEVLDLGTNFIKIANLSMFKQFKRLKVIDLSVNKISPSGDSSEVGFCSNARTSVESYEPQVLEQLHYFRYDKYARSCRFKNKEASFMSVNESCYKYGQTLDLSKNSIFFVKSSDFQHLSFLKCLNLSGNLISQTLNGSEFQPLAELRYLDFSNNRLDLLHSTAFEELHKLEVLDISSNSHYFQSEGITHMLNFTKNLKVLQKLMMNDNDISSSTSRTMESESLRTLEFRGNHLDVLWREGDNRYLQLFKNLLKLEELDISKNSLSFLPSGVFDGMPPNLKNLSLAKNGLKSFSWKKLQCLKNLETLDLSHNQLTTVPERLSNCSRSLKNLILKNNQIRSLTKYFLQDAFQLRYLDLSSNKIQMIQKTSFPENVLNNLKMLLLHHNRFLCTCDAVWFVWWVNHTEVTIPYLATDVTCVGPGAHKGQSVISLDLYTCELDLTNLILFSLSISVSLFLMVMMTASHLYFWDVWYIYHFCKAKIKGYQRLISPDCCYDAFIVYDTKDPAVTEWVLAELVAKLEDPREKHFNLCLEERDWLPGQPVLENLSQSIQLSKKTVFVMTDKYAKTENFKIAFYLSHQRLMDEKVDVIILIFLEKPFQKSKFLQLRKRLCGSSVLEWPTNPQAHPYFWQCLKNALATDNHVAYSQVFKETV
Outline: as §1

human TLR8 = target: T3, human TLR8 (Homo sapiens, UniProt Q9NR97); experiment: TLR8 inhibition reporter assay (HEK-Blue, SEAP); conditions: HEK-Blue cells overexpressing human TLR8, R848 15.9 μM, 22 hour incubation
T3 construct: host or cells: HEK-Blue cells
T3 sequence (Q9NR97 27-1041): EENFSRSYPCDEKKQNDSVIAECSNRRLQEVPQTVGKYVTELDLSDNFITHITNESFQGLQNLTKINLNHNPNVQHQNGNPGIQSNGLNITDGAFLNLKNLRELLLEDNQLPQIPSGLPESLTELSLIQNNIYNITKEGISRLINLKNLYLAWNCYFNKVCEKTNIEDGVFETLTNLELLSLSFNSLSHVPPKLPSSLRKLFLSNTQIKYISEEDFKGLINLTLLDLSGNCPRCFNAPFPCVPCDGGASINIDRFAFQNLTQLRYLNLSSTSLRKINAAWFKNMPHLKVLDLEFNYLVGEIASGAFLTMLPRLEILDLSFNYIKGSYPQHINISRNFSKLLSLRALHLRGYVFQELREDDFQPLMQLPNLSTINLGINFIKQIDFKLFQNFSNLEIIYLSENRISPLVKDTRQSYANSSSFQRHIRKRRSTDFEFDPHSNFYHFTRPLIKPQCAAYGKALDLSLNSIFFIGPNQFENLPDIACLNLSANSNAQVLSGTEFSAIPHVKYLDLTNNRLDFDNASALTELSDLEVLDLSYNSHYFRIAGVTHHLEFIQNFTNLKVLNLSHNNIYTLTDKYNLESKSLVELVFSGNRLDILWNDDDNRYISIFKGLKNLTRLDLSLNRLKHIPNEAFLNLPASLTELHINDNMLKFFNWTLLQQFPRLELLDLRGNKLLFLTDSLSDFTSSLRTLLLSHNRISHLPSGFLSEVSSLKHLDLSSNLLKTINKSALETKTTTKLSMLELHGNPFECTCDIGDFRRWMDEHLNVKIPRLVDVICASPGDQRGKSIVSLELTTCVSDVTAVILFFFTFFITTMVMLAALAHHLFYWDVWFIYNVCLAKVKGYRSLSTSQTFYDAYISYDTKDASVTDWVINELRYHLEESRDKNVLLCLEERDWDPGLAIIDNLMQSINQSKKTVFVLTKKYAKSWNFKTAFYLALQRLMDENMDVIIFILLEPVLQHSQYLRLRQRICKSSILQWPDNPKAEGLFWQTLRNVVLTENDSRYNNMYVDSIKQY
Outline: as §1

Structure (SMILES)	IC50 (human TLR9)	IC50 (human TLR7)	IC50 (human TLR8)
COc1cc(-c2[nH]c3ccc(C4CCN(C5CCOC5)CC4)cc3c2C(C)C)cn2cnnc12 (stereo not drawn) [Example 94, 6-(3-isopropyl-5-(1-(tetrahydrofuran-3-yl)piperidin-4-yl)-1H-indol-2-yl)-8-methoxy-[1,2,4]triazolo[4,3-a]pyridine]	914 nM	0.6 nM	11.9 nM
COc1cc(-c2[nH]c3ccc(C4CCN(C5CCC(F)(F)CC5)CC4)cc3c2C(C)C)cn2cnnc12 [Example 95, 6-(5-(1-(4,4-difluorocyclohexyl)piperidin-4-yl)-3-isopropyl-1H-indol-2-yl)-8-methoxy-[1,2,4] triazolo[4,3-a]pyridine]	2080 nM	0.7 nM	20.5 nM
Cc1c(-c2[nH]c3ccc(C4CCN(C(C)C)CC4)cc3c2C(C)C)cn2cnnc2c1C [Example 99, 6-(3-isopropyl-5-(1-isopropylpiperidin-4-yl)-1H-indol-2-yl)-7,8-dimethyl-[1,2,4]triazolo [4,3-a]pyridine]	2220 nM	1.7 nM	8.3 nM
Cc1c(-c2[nH]c3ccc(C4CCN(C5CC(C)(C)OC(C)(C)C5)CC4)cc3c2C(C)C)cn2cnnc2c1C [Example 100, 6-(3-isopropyl-5-(1-(2,2,6,6-tetramethyltetrahydro-2H-pyran-4-yl)piperidin-4-yl)-1H-indol-2-yl)-7,8-dimethyl-[1,2,4]triazolo[4,3-a]pyridine]	4440 nM	13.7 nM	31.6 nM
Cc1c(-c2[nH]c3ccc(C4CCN(C5CCC(F)(F)CC5)CC4)cc3c2C(C)C)cn2cnnc2c1C [Example 101, 6-(5-(1-(4,4-difluorocyclohexyl)piperidin-4-yl)-3-isopropyl-1H-indol-2-yl)-7,8-dimethyl-[1,2,4] triazolo[4,3-a]pyridine]	1440 nM	12.3 nM	12.4 nM
Cc1c(-c2[nH]c3ccc(C4CC(C)N(CC(=O)N(C)C)C(C)C4)cc3c2C(C)C)cn2cnnc2c1C (stereo not drawn) [Example 112, 2-(4-(2-(7,8-dimethyl-[1,2,4]triazolo[4,3-a]pyridin-6-yl)-3-isopropyl-1H-indol-5-yl)-2,6-dimethylpiperidin-1-yl)-N,N-dimethylacetamide]	7420 nM	20.6 nM	121 nM

The remaining lines, values ahead:

IC50 (human TLR9)	IC50 (human TLR7)	IC50 (human TLR8)	Structure (SMILES)
376 nM	1.2 nM	35.8 nM	COc1cc(-c2[nH]c3ccc(C4CCN(C)CC4)cc3c2C(C)C)cn2cnnc12 [Example 96, 6-(3-isopropyl-5-(1-methylpiperidin-4-yl)-1H-indol-2-yl)-8-methoxy-[1,2,4]triazolo[4,3-a)pyridine]
768 nM	2.3 nM	56.1 nM	COc1cc(-c2[nH]c3ccc(C4CCN(C(C)C)CC4)cc3c2C(C)C)cn2cnnc12 [Example 97, 6-(3-isopropyl-5-(1-isopropylpiperidin-4-yl)-1H-indol-2-yl)-8-methoxy-[1,2,4]triazolo[4,3-a]pyridine]
1790 nM	1 nM	12.1 nM	Cc1c(-c2[nH]c3ccc(C4CCN(C)CC4)cc3c2C(C)C)cn2cnnc2c1C [Example 98, 6-(3-isopropyl-5-(1-methylpiperidin-4-yl)-1H-indol-2-yl)-7,8-dimethyl-[1,2,4]triazolo[4,3-a]pyridine]
917 nM	2.5 nM	14.6 nM	Cc1cc(-c2[nH]c3ccc(C4CCN(C(=O)CN(C)C)CC4)cc3c2C(C)C)cn2cnnc12 [Example 104, 2-(dimethylamino)-1-(4-(3-isopropyl-2-(8-methyl-[1,2,4]triazolo[4,3-a]pyridin-6-yl)-1H-indol-5-yl)piperidin-1-yl)ethanone]
188 nM	5.9 nM	134 nM	CC(C)c1c(-c2ccc3nncn3c2)[nH]c2ccc(C3CCN(C(=O)CN(C)C)CC3)cc12 [Example 105, 1-(4-(2-([1,2,4]triazolo[4,3-a]pyridin-6-yl)-3-isopropyl-1H-indol-5-yl)piperidin-1-yl)-2-(dimethylamino)ethan-1-one]
382 nM	43 nM	39.1 nM	Cc1nnc2ccc(-c3[nH]c4ccc(C5CCN(C(=O)CN(C)C)CC5)cc4c3C(C)C)cn12 [Example 106, 2-(dimethylamino)-1-(4-(3-isopropyl-2-(3-methyl-[1,2,4]triazolo[4,3-a]pyridin-6-yl)-1H-indol-5-yl)piperidin-1-yl)ethan-1-one]
918 nM	40.7 nM	591 nM	Cc1cc2nncn2cc1-c1[nH]c2ccc(C3CCN(C(=O)CN(C)C)CC3)cc2c1C(C)C [Example 107, 2-(dimethylamino)-1-(4-(3-isopropyl-2-(7-methyl-[1,2,4]triazolo[4,3-a]pyridin-6-yl)-1H-indol-5-yl)piperidin-1-yl)ethan-1-one]
216 nM	78.7 nM	30.4 nM	Cc1c(-c2[nH]c3ccc(C4CCN(C(=O)CN(C)C)CC4)cc3c2C(C)C)ccc2nncn12 [Example 108, 2-(dimethylamino)-1-(4-(3-isopropyl-2-(5-methyl-[1,2,4]triazolo[4,3-a]pyridin-6-yl)-1H-indol-5-yl)piperidin-1-yl)ethan-1-one]
